Test results from US7662832B2, “Pyrrolo[2,3-c]pyridine derivatives and processes for the preparation thereof” (priority 2004, dated 2010).
Where a name gives a salt, the structure may show the parent alone.

Molecular target: Proton Pump (H^+/K^+-ATPase) (Sus scrofa, UniProt P19156)
Test: Inhibitory effects on proton pump (H^+/K^+-ATPase) activity
Format: biochemical
Settings: hog gastric vesicles; K^+ stimulated H^+/K^+-ATPase activity; 30 minutes at 37° C.

Chain of Proton Pump (H^+/K^+-ATPase) (P19156 2-1034 limits assumed): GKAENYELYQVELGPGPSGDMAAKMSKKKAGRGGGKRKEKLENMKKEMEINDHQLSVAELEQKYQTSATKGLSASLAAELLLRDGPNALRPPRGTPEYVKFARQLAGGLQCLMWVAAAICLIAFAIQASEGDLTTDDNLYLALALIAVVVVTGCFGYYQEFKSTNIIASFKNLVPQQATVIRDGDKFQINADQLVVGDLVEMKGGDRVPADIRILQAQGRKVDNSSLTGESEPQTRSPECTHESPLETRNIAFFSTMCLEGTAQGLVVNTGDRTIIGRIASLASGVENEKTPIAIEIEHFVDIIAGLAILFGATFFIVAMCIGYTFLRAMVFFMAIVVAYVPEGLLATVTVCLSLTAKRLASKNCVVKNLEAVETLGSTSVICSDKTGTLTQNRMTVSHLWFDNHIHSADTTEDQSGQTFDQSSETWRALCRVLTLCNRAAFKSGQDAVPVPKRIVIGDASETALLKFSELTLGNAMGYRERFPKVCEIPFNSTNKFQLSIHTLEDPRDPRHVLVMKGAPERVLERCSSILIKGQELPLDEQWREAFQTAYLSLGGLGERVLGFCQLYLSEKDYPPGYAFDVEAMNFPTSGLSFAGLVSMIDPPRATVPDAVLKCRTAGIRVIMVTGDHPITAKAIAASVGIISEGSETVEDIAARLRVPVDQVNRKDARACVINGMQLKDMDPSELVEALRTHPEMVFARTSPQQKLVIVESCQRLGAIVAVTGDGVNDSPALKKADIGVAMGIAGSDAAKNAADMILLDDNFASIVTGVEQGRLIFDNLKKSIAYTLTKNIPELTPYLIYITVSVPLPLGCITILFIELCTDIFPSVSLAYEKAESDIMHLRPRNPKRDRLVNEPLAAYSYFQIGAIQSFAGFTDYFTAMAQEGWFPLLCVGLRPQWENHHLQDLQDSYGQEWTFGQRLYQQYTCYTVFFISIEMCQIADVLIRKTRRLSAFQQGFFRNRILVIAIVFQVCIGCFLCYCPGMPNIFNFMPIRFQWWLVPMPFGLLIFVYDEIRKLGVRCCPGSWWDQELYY
Chain of Proton Pump (H^+/K^+-ATPase) (P18434 whole entry partner): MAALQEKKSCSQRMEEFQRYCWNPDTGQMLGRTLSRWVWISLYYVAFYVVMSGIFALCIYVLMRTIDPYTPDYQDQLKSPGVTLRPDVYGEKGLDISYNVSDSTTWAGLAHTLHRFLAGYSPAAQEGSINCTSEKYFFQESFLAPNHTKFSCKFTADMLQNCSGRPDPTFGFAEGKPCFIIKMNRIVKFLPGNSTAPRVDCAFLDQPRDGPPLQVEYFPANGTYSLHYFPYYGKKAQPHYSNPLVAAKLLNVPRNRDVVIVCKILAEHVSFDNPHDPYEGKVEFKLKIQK

IC50 [nM] | Compound
380 | Cc1c(C)n(CC2CC2)c2c(COc3ccc(F)cc3)nccc12 [Example 7, 1-cyclopropylmethyl-7-(4-fluorophenoxymethyl)-2,3-dimethyl-1H-pyrrolo[2,3-c]pyridine hydrochloride]
55 | CCn1c(C)c(C)c2cc(C(=O)N3CCSCC3)nc(N3CCc4ccccc4C3)c21 [Example 808, [7-(3,4-dihydro-1H-isoquinolin-2-yl)-1-ethyl-2,3-dimethyl-1H-pyrrolo[2,3-c]pyridin-5-yl]-(thiomorpholin-4-yl)-methanone hydrochloride]
350 | Cc1[nH]c2c(-c3ccc(Cl)cc3)nccc2c1C [Example 299, 7-(4-chlorophenyl)-2,3-dimethyl-1H-pyrrolo[2,3-c]pyridine hydrochloride]
26 | Cc1c(C)n(Cc2cccc(F)c2)c2c(N3CCc4ccccc4C3)nc(CN3CCN(C)CC3)cc12 [Example 873, 2-[1-(3-fluorobenzyl)-2,3-dimethyl-5-(4-methylpiperazin-1-ylmethyl)-1H-pyrrolo[2,3-c]pyridin-7-yl]-1,2,3,4-tetrahydroisoquinoline hydrochloride]
209 | Cc1c(C)n(Cc2cccc(F)c2)c2c(CNc3ccc(F)cc3)nccc12 [Example 91, N-[1-(3-fluorobenzyl)-2,3-dimethyl-1H-pyrrolo[2,3-c]pyridin-7-ylmethyl]-4-fluorophenylamine hydrochloride]
470 | COCCn1c(C)c(C)c2ccnc(N3CCc4ccccc4C3C3CC3)c21 (stereo not shown) [Example 571, 1-cyclopropyl-2-[1-(2-methoxyethyl)-2,3-dimethyl-1H-pyrrolo[2,3-c]pyridin-7-yl]-1,2,3,4-tetrahydroisoquinoline hydrochloride]
424 | CC=Cn1c(C)c(C)c2ccnc(CNc3ccc(F)cc3)c21 [Example 108, N-(2,3-dimethyl-1-propenyl-1H-pyrrolo[2,3-c]pyridin-7-ylmethyl)-4-fluorophenylamine hydrochloride]
300 | Cc1c(C)n(Cc2ccc3ccccc3c2)c2c(N3CCc4ccccc4C3)nccc12 [Example 502, 1-(naphthalen-2-ylmethyl)-7-(1,2,3,4-tetrahydroisoquinolin-2-yl)-2,3-dimethyl-1H-pyrrolo[2,3-c]pyridine hydrochloride]
26 | COCCn1c(C)c(C)c2cc(C(=O)N3CCN(C)CC3)nc(N3CCc4ccccc4C3)c21 [Example 821, [7-(3,4-dihydro-1H-isoquinolin-2-yl)-1-(2-methoxyethyl)-2,3-dimethyl-1H-pyrrolo[2,3-c]pyridin-5-yl]-(4-methylpiperazin-1-yl)-methanone hydrochloride]
87 | Cc1c(C)n(Cc2ccccc2)c2c(N3CCc4ccccc4C3)nc(CN3CCN(C)CC3)cc12 [Example 883, 2-[1-benzyl-2,3-dimethyl-5-(4-methylpiperazin-1-ylmethyl)-1H-pyrrolo[2,3-c]pyridin-7-yl]-1,2,3,4-tetrahydroisoquinoline hydrochloride]
331 | CCn1c(C)c(C)c2cc(C(=O)O)nc(N3CCc4ccccc4C3)c21 [Example 738, 7-(3,4-dihydro-1H-isoquinolin-2-yl)-1-ethyl-2,3-dimethyl-1H-pyrrolo[2,3-c]pyridin-5-carboxylic acid]
59 | CCn1c(C)c(C)c2ccnc(N3CCc4ccccc4C3C)c21 (stereo not shown) [Example 554, 2-(1-ethyl-2,3-dimethyl-1H-pyrrolo[2,3-c]pyridin-7-yl)-1-methyl-1,2,3,4-tetrahydroisoquinoline hydrochloride]
330 | C=Cc1ccc(-c2nccc3c(C)c(C)n(Cc4ccc(F)cc4)c23)cc1 [Example 258, 2,3-dimethyl-1-(4-fluorobenzyl)-7-(4-vinylphenyl)-1H-pyrrolo[2,3-c]pyridine hydrochloride]
330 | CCC1c2ccccc2CCN1c1nccc2c(C)c(C)n(Cc3csc(C)n3)c12 (stereo not shown) [Example 586, 1-ethyl-2-[2,3-dimethyl-1-(2-methylthiazol-4-ylmethyl)-1H-pyrrolo[2,3-c]pyridin-7-yl]-1,2,3,4-tetrahydroisoquinoline hydrochloride]
25 | Cc1c(C)n(Cc2cccc(F)c2)c2c(N3CCc4ccccc4C3)nc(C(=O)O)cc12 [Example 737, 7-(3,4-dihydro-1H-isoquinolin-2-yl)-1-(3-fluorobenzyl)-2,3-dimethyl-1H-pyrrolo[2,3-c]pyridin-5-carboxylic acid]
1.5 | C#CCn1c(C)c(C)c2cc(C(N)=O)nc(N3CCc4ccccc4C3)c21 [Example 749, 7-(3,4-dihydro-1H-isoquinolin-2-yl)-2,3-dimethyl-1-(prop-2-ynyl)-1H-pyrrolo[2,3-c]pyridin-5-carboxamide]
37 | Cc1c(C)n(Cc2cccc(F)c2)c2c(N3CCc4ccccc4C3)nc(CNC3CC3)cc12 [Example 871, N-[7-(3,4-dihydro-1H-isoquinolin-2-yl)-1-(3-fluorobenzyl)-2,3-dimethyl-1H-pyrrolo[2,3-c]pyridin-5-ylmethyl]-cyclopropylamine hydrochloride]
70 | Cc1c(C)n(CC2CC2)c2c(-c3ccc4ccccc4c3)nccc12 [Example 403, 1-cyclopropylmethyl-2,3-dimethyl-7-(naphthalen-2-yl)-1H-pyrrolo[2,3-c]pyridine hydrochloride]
75 | C=CCn1c(C)c(C)c2ccnc(-c3ccc(SC)cc3)c21 [Example 263, 1-allyl-2,3-dimethyl-7-(4-methylsulfanylphenyl)-1H-pyrrolo[2,3-c]pyridine hydrochloride]
24 | CCCn1c(C)c(C)c2cc(C(=O)N3CCN(C)CC3)nc(N3CCc4ccccc4C3)c21 [Example 825, [7-(3,4-dihydro-1H-isoquinolin-2-yl)-2,3-dimethyl-1-propyl-1H-pyrrolo[2,3-c]pyridin-5-yl]-(4-methylpiperazin-1-yl)-methanone hydrochloride]
1980 | Cc1[nH]c2c(-c3ccc(F)cc3)nccc2c1C [Example 325, 7-(4-fluorophenyl)-2,3-dimethyl-1H-pyrrolo[2,3-c]pyridine hydrochloride]
44 | Cc1c(C)n(CC2CCC2)c2c(N3CCc4ccccc4C3)nc(C(=O)N3CCN(C)CC3)cc12 [Example 830, [1-cyclobutylmethyl-7-(3,4-dihydro-1H-isoquinolin-2-yl)-2,3-dimethyl-1H-pyrrolo[2,3-c]pyridin-5-yl]-(4-methylpiperazin-1-yl)-methanone hydrochloride]

Compound | IC50 [nM]
C=CCn1c(C)c(C)c2ccnc(N3CCc4ccccc4C3)c21 [Example 492, 1-allyl-7-(1,2,3,4-tetrahydroisoquinolin-2-yl)-2,3-dimethyl-1H-pyrrolo[2,3-c]pyridine phosphate] | 7
Cc1c(C)n(Cc2cccc(Cl)c2)c2c(N3CCc4ccccc4C3)nc(C(=O)N3CCSCC3)cc12 [Example 790, [1-(3-chlorobenzyl)-7-(3,4-dihydro-1H-isoquinolin-2-yl)-2,3-dimethyl-1H-pyrrolo[2,3-c]pyridin-5-yl]-(thiomorpholin-1-yl)-methanone hydrochloride] | 128
C=CCn1c(C)c(C)c2ccnc(N3CCc4ccccc4C3)c21 [Example 494, 1-allyl-7-(1,2,3,4-tetrahydroisoquinolin-2-yl)-2,3-dimethyl-1H-pyrrolo[2,3-c]pyridine hydrobromide] | 4
